Molecules are shown by their SMILES.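 Five concentrations, 48 hours, 96-well plates. GI50: concentration for 50% inhibition of growth.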 Activity calls are given as the source filed them. Cut-off read from the data, not from the text of the source: active = GI50 up to about 1.1 µM and inactive = higher.

Some test systems named below: BT-549; CAKI-1; DU-145; M14; MDA-MB-231; MDA-N; MOLT-4; Malme-3M; SF-268; SF-295; SK-OV-3; SN12C; SNB-19; SNB-75; SR; UO-31; OVCAR-4; SK-MEL-5; UACC-257.
Holding throughout (assay): growth of human tumour cells (NCI), 48 h

On to `CC1=NN(C(=O)CC(=O)NC(=O)/C=C\c2ccccc2)C(=O)C1/N=N/c1ccc([N+](=O)[O-])cc1` (stereo unspecified), for which the GI50 is 19.1 µM (inactive) with BT-549; 30.6 µM (inactive) with CAKI-1; 55.7 µM (inactive) with DU-145; > 100 µM (inactive) in the assay on M14; > 100 µM (inactive) with MDA-MB-231; > 100 µM (inactive) in the assay with MDA-N. The GI50 with MOLT-4 was 60.1 µM (inactive); in the assay with Malme-3M, > 100 µM (inactive); with SF-268 it was > 100 µM (inactive); with SF-295, 53.6 µM (inactive); in the assay with SK-OV-3 it was > 100 µM (inactive); in the assay on SN12C, > 100 µM (inactive). Besides, the GI50 in the assay with SNB-19 was > 100 µM (inactive); in the assay with SNB-75 it was 52.4 µM (inactive); in the assay on SR, > 10 µM (inactive); in the assay with UO-31, 48 µM (inactive).
For `C[Si](C)(C)C#CCO[Si](C)(C)C`, the GI50 in the assay with BT-549 was 39.1 µM (inactive); in the assay on CAKI-1, > 78.7 µM (inactive); in the assay on DU-145 it was > 100 µM (inactive); with M14, > 74.8 µM (inactive); with MDA-MB-231, > 50.2 µM (inactive); in the assay with MDA-N, 49.8 µM (inactive). Besides, the GI50 in the assay with MOLT-4 was 22.3 µM (inactive); with Malme-3M it was > 100 µM (inactive); in the assay with OVCAR-4 it was > 100 µM (inactive); with SF-268, 34.2 µM (inactive); in the assay with SF-295, > 100 µM (inactive); in the assay on SK-MEL-5 it was > 100 µM (inactive). The GI50 in the assay with SK-OV-3 was > 100 µM (inactive); with SN12C, > 100 µM (inactive); in the assay on SNB-19, > 100 µM (inactive); in the assay on SNB-75, 47.2 µM (inactive); in the assay with SR it was 34.1 µM (inactive); in the assay with UACC-257 it was > 100 µM (inactive). In addition, in the assay on UO-31, the GI50 was > 100 µM (inactive).
For `O=C1O[C@]2(c3ccccc3)C(c3ccccc3)=C[C@]2(C(=O)c2ccccc2)C1=O`, the GI50 was 36.1 µM (inactive) in the assay with BT-549; 36.9 µM (inactive) with CAKI-1; 0.292 µM (active) in the assay on DU-145; 32.3 µM (inactive) in the assay on M14; 32.3 µM (inactive) in the assay with MDA-MB-231; 31.9 µM (inactive) in the assay on MDA-N. The GI50 is 4.02 µM (inactive) with MOLT-4; 65.2 µM (inactive) in the assay with Malme-3M; 39.1 µM (inactive) in the assay on OVCAR-4; 38 µM (inactive) with SF-268; 47 µM (inactive) in the assay with SF-295; 31.8 µM (inactive) in the assay with SK-MEL-5. Moreover, the GI50 in the assay with SK-OV-3 was 42.4 µM (inactive); in the assay with SN12C, 33.4 µM (inactive); in the assay on SNB-19, 36.6 µM (inactive); in the assay with SNB-75 it was 3.92 µM (inactive); in the assay on SR, 10.7 µM (inactive); in the assay on UACC-257 it was 30.3 µM (inactive). In addition, in the assay on UO-31, the GI50 was 27.9 µM (inactive).
Take `O=C1C=CC2(C=C1)O[C@H](CCc1ccccc1)[C@@H](CCc1ccccc1)O2`: the GI50 in the assay on BT-549, in the assay on CAKI-1, with DU-145, in the assay with M14, in the assay on MDA-MB-231 and in the assay with MDA-N was > 100 µM (inactive) in each case. Also, the GI50 is 81.8 µM (inactive) in the assay on MOLT-4; > 100 µM (inactive) with Malme-3M; 85.5 µM (inactive) in the assay on OVCAR-4; 61.8 µM (inactive) in the assay with SF-268; > 100 µM (inactive) in the assay with SF-295; > 100 µM (inactive) in the assay on SK-MEL-5. For the same compound, the GI50 with SK-OV-3, in the assay with SN12C, with SNB-19, with SNB-75, in the assay with SR and with UACC-257 was > 100 µM (inactive) each time. In addition, the GI50 with UO-31 was > 100 µM (inactive).
On to `COc1nc(C)nc2sc3c(c12)CCCC3`, for which the GI50 in the assay on BT-549, in the assay on CAKI-1, in the assay with DU-145, in the assay with MDA-MB-231, with MDA-N and in the assay with MOLT-4 was > 100 µM (inactive) throughout. Also, the GI50 in the assay with Malme-3M, with OVCAR-4, in the assay on SF-268, with SF-295, in the assay with SK-MEL-5 and with SN12C was > 100 µM (inactive) in each case. The GI50 in the assay on SNB-19 was > 100 µM (inactive); in the assay with SNB-75 it was 93.3 µM (inactive); in the assay with SR, > 100 µM (inactive); with UACC-257, > 100 µM (inactive); in the assay with UO-31, 89.9 µM (inactive).
As to `COc1ccc2cc(-c3nc(N)nc(N4N=C(C)CC4(C)C)n3)c(=N)oc2c1`, the GI50 with BT-549 is 18.6 µM (inactive); in the assay with CAKI-1, 17.5 µM (inactive); in the assay with DU-145 it was 15.8 µM (inactive); in the assay with M14 it was 21.5 µM (inactive); in the assay with MDA-MB-231, 18.8 µM (inactive); with MDA-N it was 17.1 µM (inactive). In addition, the GI50 is 11.7 µM (inactive) in the assay with MOLT-4; 16.5 µM (inactive) in the assay on Malme-3M; 18 µM (inactive) with OVCAR-4; 16.9 µM (inactive) in the assay on SF-268; 18.3 µM (inactive) with SF-295; 16.2 µM (inactive) with SK-MEL-5. The GI50 is 23.6 µM (inactive) with SK-OV-3; 20.2 µM (inactive) in the assay on SN12C; 19.3 µM (inactive) with SNB-19; 13.9 µM (inactive) with SR; 28.9 µM (inactive) with UACC-257; 21.5 µM (inactive) with UO-31.
Regarding `O=C1c2ccccc2C(=O)N1CCCCNOCCCN1C(=O)c2ccccc2C1=O`, the GI50 in the assay with BT-549, in the assay on CAKI-1, with DU-145, in the assay on M14, in the assay on MDA-MB-231 and with MDA-N was > 100 µM (inactive) each time. The GI50 in the assay with MOLT-4, with Malme-3M, in the assay on OVCAR-4, in the assay on SF-268, with SF-295 and in the assay on SK-MEL-5 was > 100 µM (inactive) throughout. Further, the GI50 in the assay on SK-OV-3, with SN12C, in the assay on SNB-19, with SNB-75, with SR and in the assay with UACC-257 was > 100 µM (inactive) in each case. In the assay with UO-31, the GI50 was > 100 µM (inactive).
In the case of `CC(=O)/N=C1/N(/C=C2\C(=O)Oc3ccccc3C2=O)C(=O)/C(=C/c2cccc(Cl)c2Cl)N1C`, the GI50 in the assay with BT-549 was 20.4 µM (inactive); with CAKI-1 it was 27.4 µM (inactive); in the assay with DU-145 it was 41.8 µM (inactive); with M14, 14.8 µM (inactive); in the assay on MDA-MB-231, 29.9 µM (inactive); with MDA-N, 42.8 µM (inactive). For the same compound, the GI50 with MOLT-4 was 20.7 µM (inactive); in the assay on Malme-3M, 33.6 µM (inactive); in the assay with SF-268 it was 20.4 µM (inactive); in the assay with SF-295 it was 34.4 µM (inactive); with SK-MEL-5 it was 12.9 µM (inactive); in the assay with SK-OV-3 it was 17.2 µM (inactive). In addition, the GI50 is 42.6 µM (inactive) in the assay on SN12C, 17.3 µM (inactive) with SNB-75, 10.8 µM (inactive) in the assay on SR and 39 µM (inactive) in the assay on UACC-257.
Turning to `CC(C)C(C/C=C1/CC(CO)(COC(=O)CC(C(C)C)C(C)C)OC1=O)C(C)C` (stereo unspecified), the GI50 with BT-549 is 15 µM (inactive); in the assay with CAKI-1 it was 2.15 µM (inactive); with DU-145, 13.2 µM (inactive); with M14, 12.5 µM (inactive); in the assay with MDA-MB-231, 4.21 µM (inactive); in the assay with MDA-N it was 11.5 µM (inactive). For the same compound, the GI50 in the assay with Malme-3M is 10.7 µM (inactive); in the assay on OVCAR-4, 17.3 µM (inactive); in the assay with SF-268 it was 10.6 µM (inactive); in the assay on SF-295 it was 0.259 µM (active); with SK-MEL-5, 10.4 µM (inactive); in the assay with SK-OV-3, 16.7 µM (inactive). Besides, the GI50 in the assay with SN12C was 14.2 µM (inactive); in the assay with SNB-19 it was 12.5 µM (inactive); in the assay on SNB-75 it was 1.78 µM (inactive); in the assay on SR it was 17.1 µM (inactive); with UACC-257 it was 16 µM (inactive); in the assay on UO-31 it was 2.86 µM (inactive).
Take `O=C(/C=C/c1ccccc1)Oc1ccc(C(=O)/C=C/c2ccc(Cl)cc2)cc1`: the GI50 with BT-549 is 25.8 µM (inactive); in the assay on CAKI-1, > 100 µM (inactive); with DU-145 it was 59.8 µM (inactive); in the assay with M14, > 100 µM (inactive); in the assay on MDA-MB-231 it was > 100 µM (inactive); in the assay on MDA-N, 37.2 µM (inactive). Further, the GI50 was > 100 µM (inactive) in the assay with MOLT-4; > 100 µM (inactive) in the assay with Malme-3M; 82.2 µM (inactive) in the assay with SF-268; 82.6 µM (inactive) in the assay on SF-295; 83.4 µM (inactive) with SK-MEL-5; > 100 µM (inactive) in the assay on SK-OV-3. Also, the GI50 with SN12C is > 100 µM (inactive); in the assay on SNB-19 it was 46.1 µM (inactive); in the assay with SNB-75 it was 75.3 µM (inactive); in the assay with SR it was 3.23 µM (inactive); in the assay on UACC-257, > 100 µM (inactive); in the assay on UO-31 it was 63.8 µM (inactive).
Turning to `CC(C)C[C@H](NC(=O)[C@H](Cc1ccccc1)NC(=O)c1cnccn1)B(O)O` [BORTEZOMIB], the GI50 in the assay with BT-549, with CAKI-1, in the assay with DU-145, with M14, in the assay with MDA-MB-231 and with MDA-N was < 0.01 µM (active) throughout. The GI50 in the assay with MOLT-4 was < 0.01 µM (active); in the assay on Malme-3M, < 0.01 µM (active); with OVCAR-4, < 0.01 µM (active); in the assay on SF-268, < 0.01 µM (active); in the assay on SF-295, < 0.01 µM (active); with SK-OV-3, 0.0329 µM (active). In addition, the GI50 in the assay on SN12C, in the assay on SNB-75, with SR, with UACC-257 and in the assay on UO-31 was < 0.01 µM (active) throughout.

(Values after ChEMBL document CHEMBL1201862, “PubChem BioAssay data set” (2004).)
